Results taken from patent publication US11560372B2, “Heterocyclic compounds useful as modulators of acetylcholine receptors” (TAKEDA PHARMACEUTICAL COMPANY LIMITED, priority 2017, dated 2023).
pEC50: −log10 of the molar value.

Columns and labels:
MDR1 = target: T1, MDR1 (Homo sapiens, UniProt P08183); assay: MDR1 membrane permeability test; type: in vitro ADME; details: pH 7.4, efflux ratio (ER), Papp B to A / A to B, human MDR1-expressing LLC-PK1 cells, read-out: MDR1 substrate screening 1 μM (MDRSUB1)/Ratio (NUMBER)
T1 construct: expressed in transfected cells
T1 sequence (P08183 whole entry): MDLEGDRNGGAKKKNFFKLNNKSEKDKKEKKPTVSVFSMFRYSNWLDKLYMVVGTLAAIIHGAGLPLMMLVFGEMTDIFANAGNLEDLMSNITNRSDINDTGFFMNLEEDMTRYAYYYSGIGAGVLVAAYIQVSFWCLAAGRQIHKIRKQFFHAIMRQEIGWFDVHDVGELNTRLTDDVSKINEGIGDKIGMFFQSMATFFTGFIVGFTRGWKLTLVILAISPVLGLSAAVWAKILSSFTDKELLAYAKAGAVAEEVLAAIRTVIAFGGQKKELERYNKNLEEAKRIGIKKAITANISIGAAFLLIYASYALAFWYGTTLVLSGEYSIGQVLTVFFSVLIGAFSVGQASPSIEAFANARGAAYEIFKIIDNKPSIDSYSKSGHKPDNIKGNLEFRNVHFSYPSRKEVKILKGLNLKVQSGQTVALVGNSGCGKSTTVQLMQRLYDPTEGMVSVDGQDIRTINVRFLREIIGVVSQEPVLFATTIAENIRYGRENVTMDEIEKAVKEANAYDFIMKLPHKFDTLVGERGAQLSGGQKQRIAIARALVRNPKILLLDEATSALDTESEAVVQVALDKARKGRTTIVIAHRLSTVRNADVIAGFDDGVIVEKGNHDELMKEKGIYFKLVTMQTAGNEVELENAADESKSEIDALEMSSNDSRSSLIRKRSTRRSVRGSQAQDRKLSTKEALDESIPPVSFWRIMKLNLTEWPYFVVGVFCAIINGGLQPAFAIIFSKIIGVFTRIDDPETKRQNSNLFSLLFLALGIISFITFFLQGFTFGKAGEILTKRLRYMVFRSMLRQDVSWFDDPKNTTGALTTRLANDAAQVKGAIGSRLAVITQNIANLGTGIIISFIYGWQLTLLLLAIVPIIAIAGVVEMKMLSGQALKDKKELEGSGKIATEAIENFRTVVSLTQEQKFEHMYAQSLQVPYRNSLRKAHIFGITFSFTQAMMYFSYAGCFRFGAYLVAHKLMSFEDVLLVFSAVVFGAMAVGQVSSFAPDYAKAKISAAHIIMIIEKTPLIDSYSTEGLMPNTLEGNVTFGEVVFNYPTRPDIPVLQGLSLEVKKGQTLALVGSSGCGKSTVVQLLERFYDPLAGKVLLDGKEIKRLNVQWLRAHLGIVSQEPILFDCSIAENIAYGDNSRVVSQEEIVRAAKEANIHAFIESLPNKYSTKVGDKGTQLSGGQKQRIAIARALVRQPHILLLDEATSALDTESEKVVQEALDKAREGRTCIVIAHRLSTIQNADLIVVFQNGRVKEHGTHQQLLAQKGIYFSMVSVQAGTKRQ
Summary of the method: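 Human MDR1-expressing LLC-PK1 cells were grown for 3 days on 96-well polyethylene terephthalate Transwell supports (0.4 μm pores, 0.143 cm^2) seeded at 3.45×10^4 cells/well. After a 30 min preincubation in M199 medium with 10 mmol/L HEPES and 1% BSA (pH 7.4), drug was added apically or basolaterally. After 1 hr at 37° C, the opposite side was sampled and analyzed by LC-MS/MS. Efflux ratio was calculated from Papp B to A versus A to B.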

[1] = target: T2, human M1 receptor (hCHRM1) (Homo sapiens, UniProt P11229); assay: Measurement of M1 receptor positive allosteric modulator (M1PAM) activity, calcium fluorescence in CHO-K1 cells; type: cell-based; details: for activity (%) at 10 μM: 10 μM test compound, 100% = acetylcholine final concentration 1 μM, 0% = DMSO; for pEC50: inflection point of concentration-dependent curve, in the presence of acetylcholine at EC20 concentration (final 0.8-1.0 nM), read-out: IP value
T2 construct: expressed in transfected cells
T2 sequence (P11229 1-460): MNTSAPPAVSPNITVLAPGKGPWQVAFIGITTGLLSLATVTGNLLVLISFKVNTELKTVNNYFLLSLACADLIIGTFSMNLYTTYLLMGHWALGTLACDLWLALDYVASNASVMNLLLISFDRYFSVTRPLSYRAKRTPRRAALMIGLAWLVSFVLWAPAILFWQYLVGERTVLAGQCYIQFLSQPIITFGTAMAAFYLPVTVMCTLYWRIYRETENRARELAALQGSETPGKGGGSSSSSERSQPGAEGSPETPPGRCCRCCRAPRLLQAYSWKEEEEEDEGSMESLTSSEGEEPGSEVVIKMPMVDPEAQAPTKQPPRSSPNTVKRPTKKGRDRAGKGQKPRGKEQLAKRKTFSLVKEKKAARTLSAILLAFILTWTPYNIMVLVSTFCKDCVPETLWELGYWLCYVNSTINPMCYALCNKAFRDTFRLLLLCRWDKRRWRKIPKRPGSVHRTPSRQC
Summary of the method: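 CHO-K1 cells stably expressing human M1 loaded with Fluo-4 AM, then given compound plus acetylcholine at EC20 (final 0.8-1.0 nM). Calcium fluorescence read for 1 min; activity normalized to 1 μM acetylcholine (100%) and DMSO (0%), with IP taken as inflection point of concentration curve.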

Structure (SMILES) | efflux ratio at 1 hr, 1 μM (MDR1) | activity (%) at 10 μM [1] [%] | pEC50 [1]
Cc1c(Cc2ccc(-c3ccn(C)n3)nc2)cc2c(=O)n([C@H]3CCOC[C@@H]3O)cnc2c1Cl [Example 13, 1,5-anhydro-3-(8-chloro-7-methyl-6-((6-(1-methyl-1H-pyrazol-3-yl)pyridin-3-yl)methyl)-4-oxoquinazolin-3(4H)-yl)-2,3-dideoxy-L-threo-pentitol] | 38 | 101 | 9.00
Cc1c(Cc2ccc(C(=O)NC3CC3)c(F)c2)cc2c(=O)n([C@H]3CCOC[C@@H]3O)cnc2c1C [Example 87, 1,5-anhydro-3-(6-(4-(cyclopropylcarbamoyl)-3-fluorobenzyl)-7,8-dimethyl-4-oxoquinazolin-3(4H)-yl)-2,3-dideoxy-L-threo-pentitol] | 8.7 | 111 | 8.64
COc1cc2ncn([C@H]3CCOC[C@@H]3O)c(=O)c2cc1Cc1ccc(-c2cnn(C)c2)nc1 [Example 58, 1,5-anhydro-2,3-dideoxy-3-(7-methoxy-6-((6-(1-methyl-1H-pyrazol-4-yl)pyridin-3-yl)methyl)-4-oxoquinazolin-3 (4H)-yl)-L-threo-pentitol] | 19 | 103 | 8.72
CCOCCNC(=O)c1ccc(Cc2cc3c(=O)n([C@H]4CCOC[C@@H]4O)cnc3c(C)c2C)cc1F [Example 85, 1,5-anhydro-2,3-dideoxy-3-(6-(4-((2-ethoxyethyl)carbamoyl)-3-fluorobenzyl)-7,8-dimethyl-4-oxoquinazolin-3(4H)-yl)-L-threo-pentitol] | 10 | 107 | 8.68
